In ChEMBL document CHEMBL1201862, “PubChem BioAssay data set” (2004):
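Grown in 96-well plates, cells were treated for 48 hours with each compound at five concentrations. Insufficient inhibition: endpoint recorded as highest concentration tested. Here, GI50 denotes the concentration required for 50% inhibition of growth.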 The source made the active and inactive calls. Cut-off read from the data, not from the text of the source: active = GI50 up to about 1.1 µM and inactive = higher. Non-standard residues stand in square brackets, D forms with d. Residues, ends and D or L forms follow the SMILES beside them. ξ: configuration not given here. *: point of attachment. NMeF = CN[C@@H](Cc1ccccc1)C(=O)O; NMeV = CN[C@H](C(=O)O)C(C)C; ξNMeV = CNC(C(=O)O)C(C)C; Boc = CC(C)(C)OC(=O)*; OBn = c1ccc(CO*)cc1

Assays:
Assay in all cases: NCI anticancer screen, dose series, 48 h
SK-MEL-28 = system: SK-MEL-28
786-0 = system: 786-0
LOX IMVI = system: LOX IMVI
XF498 = system: XF498
SF-268 = system: SF-268
OVCAR-3 = system: OVCAR-3
SW-620 = system: SW-620
NCI-H522 = system: NCI-H522
RPMI-8226 = system: RPMI-8226
EKVX = system: EKVX
HT-29 = system: HT-29
A498 = system: A498
RXF 393 = system: RXF 393
COLO 205 = system: COLO 205
ACHN = system: ACHN
OVCAR-4 = system: OVCAR-4

Measured: GI50

c1ccc(/N=c2\snc3scc(-c4ccccc4)n23)cc1
inactive: SK-MEL-28 41 µM | 786-0 50.5 µM | LOX IMVI 34.4 µM | XF498 32.1 µM | SF-268 50.1 µM | OVCAR-3 22.8 µM | SW-620 39.4 µM | NCI-H522 18.7 µM | RPMI-8226 28.7 µM | EKVX 90.2 µM | HT-29 50.5 µM | A498 > 100 µM | RXF 393 46.2 µM | COLO 205 31.5 µM | ACHN 48 µM | OVCAR-4 39.6 µM

O=C(c1ccccc1)c1ccc2cccc(OC3OC(CO)C(O)C(O)C3O)c2n1 (stereo not drawn)
inactive: SK-MEL-28 > 100 µM | 786-0 > 100 µM | LOX IMVI > 100 µM | XF498 > 100 µM | SF-268 > 100 µM | OVCAR-3 45.2 µM | SW-620 > 100 µM | NCI-H522 > 100 µM | RPMI-8226 > 100 µM | EKVX > 100 µM | HT-29 > 100 µM | A498 26.8 µM | RXF 393 > 100 µM | COLO 205 > 100 µM | ACHN > 100 µM | OVCAR-4 > 100 µM

CC(C)C(C(=O)N(C)[C@H](C(=O)N1CCC[C@H]1C(=O)N(C)[C@@H](Cc1ccccc1)C(=O)OCc1ccccc1)C(C)C)N(C)C(=O)[C@@H](NC(=O)OC(C)(C)C)C(C)C (stereo partly drawn) (Boc-V[ξNMeV][NMeV]P[NMeF]-OBn)
inactive: SK-MEL-28 > 31.6 µM | 786-0 > 43.3 µM | LOX IMVI 23.9 µM | XF498 6.19 µM | SF-268 > 31.6 µM | OVCAR-3 15.3 µM | SW-620 > 31.6 µM | NCI-H522 > 100 µM | RPMI-8226 4.97 µM | EKVX > 31.6 µM | HT-29 14.2 µM | A498 19.5 µM | RXF 393 24.6 µM | COLO 205 11.4 µM | ACHN > 57.4 µM | OVCAR-4 > 29.5 µM
